Data published in paper PMC5665424, “Software-aided approach to investigate peptide structure and metabolic susceptibility of amide bonds in peptide drugs based on high resolution mass spectrometry” (PLoS ONE, 2017).
Entries after “also recorded” stand apart in the source; their conditions may differ.

Key:
neprilysin (NEP) = neprilysin (NEP) (Homo sapiens, UniProt P08473); experiment: Incubation with neprilysin in Hank's buffered salt solution, LC-HRMS; settings: NEP 2 μg/mL in Hank's buffered salt solution, 37°C, 2, 4, 8, 24 hr (GLP-1 0, 5, 15, 30, 60 min), Fig 12b
neprilysin (NEP), sequence (P08473 whole entry): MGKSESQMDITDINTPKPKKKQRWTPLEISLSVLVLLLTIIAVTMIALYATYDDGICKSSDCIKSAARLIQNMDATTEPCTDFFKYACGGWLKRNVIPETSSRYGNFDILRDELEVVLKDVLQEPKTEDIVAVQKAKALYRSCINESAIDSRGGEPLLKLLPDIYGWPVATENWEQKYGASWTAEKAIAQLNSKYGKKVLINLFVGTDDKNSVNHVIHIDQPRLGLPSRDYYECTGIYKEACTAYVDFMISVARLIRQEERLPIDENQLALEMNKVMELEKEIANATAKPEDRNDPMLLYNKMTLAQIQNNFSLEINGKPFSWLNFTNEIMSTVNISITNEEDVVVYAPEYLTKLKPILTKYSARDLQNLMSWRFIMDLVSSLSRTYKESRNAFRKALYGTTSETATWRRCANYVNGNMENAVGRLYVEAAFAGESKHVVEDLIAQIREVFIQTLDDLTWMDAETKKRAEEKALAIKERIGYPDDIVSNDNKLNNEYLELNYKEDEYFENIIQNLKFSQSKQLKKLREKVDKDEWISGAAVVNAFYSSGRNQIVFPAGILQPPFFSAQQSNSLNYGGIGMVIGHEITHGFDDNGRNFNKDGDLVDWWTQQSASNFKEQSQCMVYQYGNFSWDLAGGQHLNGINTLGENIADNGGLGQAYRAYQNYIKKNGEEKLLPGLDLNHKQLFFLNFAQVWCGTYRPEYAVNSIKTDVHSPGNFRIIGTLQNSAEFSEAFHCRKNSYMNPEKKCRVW
Protocol: (§1) Incubations with dataset-1 were performed using isolated enzymes. […] All incubations were conducted at 37°C.
(§2) The dataset-2 peptide incubations were performed at Roche Innovation Center Basel F. Hoffmann-La Roche Ltd., (Hoffmann-La Roche, Basel, Switzerland) using isolated enzymes. For both DPP-4 and NEP incubations, a solution of the respective enzyme in Hank’s buffered salt solution was pre-incubated at 37°C for 3 to 5 min, in 96-well plate Nunc (Thermo Scientific, 163320) before the addition of 30 μL of test substance to give final concentrations of 2 μg/mL DPP-4 or 2 μg/mL NEP. Negative control samples were prepared under the same conditions (see above), containing each enzyme but without adding test compound. […] Reactions were started with the addition of […] and then quenched at each time point with 75 μL cold acetonitrile containing 1% FA followed by thorough mixing. The samples were centrifuged at 4°C for 15 min at 14,000g, and the supernatant was collected. The metabolite profile was immediately analyzed.
(§3) To generate dataset-2, a Thermo Scientific Dionex UltiMate 3000 RS UPLC system in combination with a Pal autosampler (CTC Analytics AG, Zwingen, Switzerland) was used. Chromatographic separation was performed using an Acquity CSHT Phenyl-Hexyl Column (1.7 μm, 2.1 x 100 mm). The mobile phases consisted of A: H2O/0.1% FA and B: methanol/0.1% FA. […]

[1] = target: T1, dipeptidyl peptidase-4 (DPP-4) (Homo sapiens, UniProt P27487); experiment: Incubation with dipeptidyl peptidase-4 in Hank's buffered salt solution, LC-HRMS; assay type: in vitro ADME; settings: DPP-4 2 μg/mL in Hank's buffered salt solution
T1 construct: purchased Sigma D3446; host or cells: Sf9 cells
T1 sequence (P27487 whole entry): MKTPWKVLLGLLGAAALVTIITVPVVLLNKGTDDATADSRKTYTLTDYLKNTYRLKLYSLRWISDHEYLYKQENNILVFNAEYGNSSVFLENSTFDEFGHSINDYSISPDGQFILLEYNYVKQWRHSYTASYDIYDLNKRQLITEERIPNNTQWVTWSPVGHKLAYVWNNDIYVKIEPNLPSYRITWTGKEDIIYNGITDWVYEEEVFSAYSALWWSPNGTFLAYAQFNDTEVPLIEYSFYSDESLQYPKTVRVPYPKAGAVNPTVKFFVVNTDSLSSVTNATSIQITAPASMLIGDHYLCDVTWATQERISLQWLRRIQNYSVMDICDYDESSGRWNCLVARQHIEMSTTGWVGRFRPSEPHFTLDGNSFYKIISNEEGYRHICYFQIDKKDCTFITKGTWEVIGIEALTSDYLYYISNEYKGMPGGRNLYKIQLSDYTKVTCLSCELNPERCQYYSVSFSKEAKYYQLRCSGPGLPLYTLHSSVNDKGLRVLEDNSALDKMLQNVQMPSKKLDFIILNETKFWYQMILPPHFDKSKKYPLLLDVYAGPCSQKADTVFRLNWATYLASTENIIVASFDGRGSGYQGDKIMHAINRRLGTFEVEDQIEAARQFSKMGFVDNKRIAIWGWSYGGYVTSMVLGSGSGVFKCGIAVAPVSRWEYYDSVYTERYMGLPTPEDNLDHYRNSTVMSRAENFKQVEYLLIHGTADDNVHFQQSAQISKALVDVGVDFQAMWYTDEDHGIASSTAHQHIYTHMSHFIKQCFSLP
Protocol: as §1, §2, §3

trypsin = target: T2, trypsin (Bos taurus, UniProt P00760); experiment: Incubation with trypsin in simulated intestinal fluid, LC-HRMS
T2 sequence (P00760 24-246): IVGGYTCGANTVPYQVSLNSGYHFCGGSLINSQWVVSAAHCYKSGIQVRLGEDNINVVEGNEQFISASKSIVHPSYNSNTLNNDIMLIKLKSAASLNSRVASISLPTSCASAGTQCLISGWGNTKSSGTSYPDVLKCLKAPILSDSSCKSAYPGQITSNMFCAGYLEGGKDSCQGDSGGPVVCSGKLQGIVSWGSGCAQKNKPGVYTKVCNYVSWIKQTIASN
Protocol: (§4) Incubations with dataset-1 were performed using isolated enzymes. We investigated serine proteases like trypsin, chymotrypsin, and pancreatic elastase (E 3.4.21.1, E 3.4.21.4, E 3.4.21.36) at a concentration of 500 μg/mL in simulated intestinal fluid (SIF) and the aspartic protease pepsin (E 3.4.23.1) at a concentration of 500 μg/mL in simulated gastric fluid (SGF). Proteases were purchased from Sigma Aldrich and SIF and SGF were purchased from RICCA Chemical Company (Arlington, TX, USA). […] All incubations were conducted at 37°C.
Negative control samples were prepared under the same conditions of the incubation (see above), containing each enzyme but without adding probe compounds. Probe compounds were added to 96-well plates (Micronic 0.75 mL V-bottom) using a Hewlett Packard HPD300e. […] Each well was a time point, with five timepoints (0, 5, 15, 45 and 120 min) per compound per protease. Incubations were carried out using a Hamilton MicroLab STAR Plus liquid-handler to initiate, conduct and stop incubation reactions within a single automated method. The incubation plates were placed in heated shakers present on the deck of the liquid-handler and operated at 37°C and 400 rpm shaking speed. Reactions were started with the addition of the enzyme at the appropriate time to allow for all reactions to be quenched at a single time. Incubation quenching was again carried out by the Hamilton STAR Plus with the addition of 100 μL of acetonitrile with 1% formic acid (FA) or 1% ammonium hydroxide (pepsin-only) and the internal standard (melanotan) at a concentration of 1 μM. Following reaction quenching, the samples were vortexed for approximately 2 min and the time zero sample was generated by aliquoting 50 nL of the appropriate stock compound into quenched control samples. The samples were then centrifuged in a Beckman Allegra 25R at 6000 rcf for 20 min at 10°C. […] All time points were analyzed using a data-dependent MS/MS method. […]

chymotrypsin = chymotrypsin (Bos taurus, UniProt P00766); experiment: Incubation with chymotrypsin in simulated intestinal fluid, LC-HRMS; settings: for site of cleavage (amide hydrolysis) by chymotrypsin: chymotrypsin 500 μg/mL in SIF, 10 μM peptide, 37°C, up to 120 min, metabolite structures from LC-HRMS/MS (Mass-MetaSite)
Protocol: as §4
Negative control samples were prepared under the same conditions of the incubation (see above), containing each enzyme but without adding probe compounds. Probe compounds were added to 96-well plates (Micronic 0.75 mL V-bottom) using a Hewlett Packard HPD300e. […] Each well was a time point, with five timepoints (0, 5, 15, 45 and 120 min) per compound per protease. Incubations were carried out using a Hamilton MicroLab STAR Plus liquid-handler to initiate, conduct and stop incubation reactions within a single automated method. The incubation plates were placed in heated shakers present on the deck of the liquid-handler and operated at 37°C and 400 rpm shaking speed. Reactions were started with the addition of the enzyme at the appropriate time to allow for all reactions to be quenched at a single time. Incubation quenching was again carried out by the Hamilton STAR Plus with the addition of 100 μL of acetonitrile with 1% formic acid (FA) or 1% ammonium hydroxide (pepsin-only) and the internal standard (melanotan) at a concentration of 1 μM. Following reaction quenching, the samples were vortexed for approximately 2 min and the time zero sample was generated by aliquoting 50 nL of the appropriate stock compound into quenched control samples. The samples were then centrifuged in a Beckman Allegra 25R at 6000 rcf for 20 min at 10°C. Resulting supernatant was transferred to Eppendorf LoBind 96-well plates and 1 μL was injected onto a Waters Acquity BEH-C18 1 x 50 mm, 1.7 μm column via a Waters Acquity M-Class ultra-performance liquid chromatography (UPLC) autosampler. All time points were analyzed using a data-dependent MS/MS method.
For dataset-1, chromatographic separation of metabolites was performed using the ACQUITY UPLC system (Waters, Milford, MA, USA). The ACQUITY UPLC BEH C18 column (1.0 × 50 mm, 1.7 μm) was heated to 60°C. The mobile phase consisted of 0.1% FA in water (eluent A) and 0.1% formic acid in acetonitrile (eluent B) at a flow rate of 75 μL/min. The initial condition was 10% eluent B, which was maintained for 0.1 min. Eluent B was then increased via a linear gradient to 40% until 3.1 min and further increased to 90% via linear gradient to 3.6 min. Eluent B was then held at 90% until 4.0 min when it was ramped down to 10% by 4.05 min and held until the end of the run at 6 min. […] Full scan/data-dependent MS/MS analyses were run on a Thermo Scientific Q-Exactive Plus mass spectrometer operated in positive electrospray ionization (ESI) mode. The MS and MS/MS acquisition scans were operated with a resolution setting of 17,500 for both, with an automatic gain control (AGC) setting of 1E6 and maximum injection time of 100 ms for MS and AGC of 2E5 and max injection time of 50 ms for full scan/data-dependent MS/MS.

pancreatic elastase = target: T3, pancreatic elastase (Sus scrofa, UniProt P00772); experiment: Incubation with pancreatic elastase in simulated intestinal fluid, LC-HRMS; assay type: in vitro ADME, porcine; settings: elastase 500 μg/mL in SIF pH 7.4-7.6, 10 μM peptide, 37°C, 0, 5, 15, 45, 120 min, internal standard melanotan, Fig 11c
T3 construct: porcine pancreas; purchased Sigma (Sigma Aldrich) E0258; host or cells: porcine pancreas (tissue-derived)
T3 sequence (P00772 27-266): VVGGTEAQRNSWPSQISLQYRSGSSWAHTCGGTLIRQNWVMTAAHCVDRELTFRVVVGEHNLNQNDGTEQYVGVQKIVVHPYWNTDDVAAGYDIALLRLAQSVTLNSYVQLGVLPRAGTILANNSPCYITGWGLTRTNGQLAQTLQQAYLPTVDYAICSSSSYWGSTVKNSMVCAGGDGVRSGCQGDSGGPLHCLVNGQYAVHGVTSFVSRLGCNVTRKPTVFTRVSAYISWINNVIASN
Protocol: as §1
Supporting Table 1: Incubation conditions and proteases characteristics
Chymotrypsin Trypsin Elastase Pepsin
αChymotrypsin from Trypsin from Elastase from Pepsin from porcine
Protease bovine pancreas, bovine pancreas, porcine pancreas, gastric mucosa,
Internal Melanotan II acetate salt,
Mobile Phase Water +0.1% formic acid
Mobile Phase Acetonitrile+0.1% formic acid […]
Quadrupole -Orbitrap Mass Spectrometer

For `CCCCCCCCCCCCCCCC(=O)N[C@@H](CCC(=O)NCCCC[C@H](NC(=O)[C@H](C)NC(=O)[C@H](C)NC(=O)[C@H](CCC(N)=O)NC(=O)CNC(=O)[C@H](CCC(=O)O)NC(=O)[C@H](CC(C)C)NC(=O)[C@H](Cc1ccc(O)cc1)NC(=O)[C@H](CO)NC(=O)[C@H](CO)NC(=O)[C@@H](NC(=O)[C@H](CC(=O)O)NC(=O)[C@H](CO)NC(=O)[C@@H](NC(=O)[C@H](Cc1ccccc1)NC(=O)[C@@H](NC(=O)CNC(=O)[C@H](CCC(=O)O)NC(=O)[C@H](C)NC(=O)[C@@H](N)Cc1cnc[nH]1)[C@@H](C)O)[C@@H](C)O)C(C)C)C(=O)N[C@@H](CCC(=O)O)C(=O)N[C@@H](Cc1ccccc1)C(=O)N[C@H](C(=O)N[C@@H](C)C(=O)N[C@@H](Cc1c[nH]c2ccccc12)C(=O)N[C@@H](CC(C)C)C(=O)N[C@H](C(=O)N[C@@H](CCCNC(=N)N)C(=O)NCC(=O)N[C@@H](CCCNC(=N)N)C(=O)NCC(=O)O)C(C)C)[C@@H](C)CC)C(=O)O` [liraglutide, Liraglutide], the “metabolic stability with NEP: percent parent peptide remaining with respect to time, compared in words” value (neprilysin (NEP)) was “digested faster than the other compounds; also recorded: NEP acted slower as compared to DPP-4”, the “metabolic stability with DPP-4: percent parent peptide remaining with respect to time, compared in words” value ([1]; 37°C, 2, 4, 8, 24 hr (GLP-1 0, 5, 15, 30, 60 min), LC-HRMS, Fig 12a) was “digested faster than the other compounds” and the “site of cleavage (amide hydrolysis) by DPP-4” value ([1]; 37°C, metabolite structures from LC-HRMS/MS (Mass-MetaSite)) was “mainly metabolized by DPP-4 at the SoC Ala-Glu”.

With “Glp-His-Trp-Ser-Tyr-Ser-tBu-Leu-Arg-Pro-NHNHCONH2 [goserelin, Goserelin]” the “site of cleavage (amide hydrolysis) by trypsin” value (trypsin; trypsin 500 μg/mL in SIF, 10 μM peptide, 37°C, up to 120 min, metabolite structures from LC-HRMS/MS (Mass-MetaSite)) was “also when the C-terminal Pro was modified to Pro-NHNHCONH2 in goserelin”.

In the case of `CC[C@H](C)[C@@H]1NC(=O)[C@H](Cc2ccc(O)cc2)NC(=O)[C@@H](N)CSSC[C@@H](C(=O)N2CCC[C@H]2C(=O)N[C@@H](CC(C)C)C(=O)NCC(N)=O)NC(=O)[C@H](CC(N)=O)NC(=O)[C@H](CCC(N)=O)NC1=O` [oxytocin, Oxytocin], the “metabolic stability with chymotrypsin: percent parent peptide remaining with respect to time, compared in words” value (chymotrypsin; chymotrypsin 500 μg/mL in SIF pH 7.4-7.6, 10 μM peptide, 37°C, 0, 5, 15, 45, 120 min, LC-HRMS, internal standard melanotan, Fig 11b) was “digested slower than calcitonin”, the “site of cleavage (amide hydrolysis) by chymotrypsin” value (chymotrypsin) was “cleavage of Leu-Gly; also recorded: Tyr-Ile (M1-38, cycle opening)” and the “metabolic stability with trypsin: percent parent peptide remaining with respect to time, compared in words” value (trypsin; trypsin 500 μg/mL in SIF pH 7.4-7.6, 10 μM peptide, 37°C, 0, 5, 15, 45, 120 min, LC-HRMS, internal standard melanotan, Fig 11a) was “digested slower than calcitonin; also recorded: hydrolyzed slower than all other peptides”.

With `C[C@@H](O)[C@@H]1NC(=O)[C@H](CCCCN)NC(=O)[C@@H](Cc2c[nH]c3ccccc23)NC(=O)[C@H](Cc2ccccc2)NC(=O)[C@@H](NC(=O)[C@H](N)Cc2ccccc2)CSSC[C@@H](C(=O)N[C@H](CO)[C@@H](C)O)NC1=O` [octreotide, Octreotide] the “metabolic stability with pancreatic elastase: percent parent peptide remaining with respect to time, compared in words” value (pancreatic elastase) was “digested significantly faster than the larger secretin and calcitonin, but it was slower than oxytocin”.

`CCNC(=O)[C@@H]1CCCN1C(=O)[C@H](CCCNC(=N)N)NC(=O)[C@H](CC(C)C)NC(=O)[C@@H](COC(C)(C)C)NC(=O)[C@H](Cc1ccc(O)cc1)NC(=O)[C@H](CO)NC(=O)[C@H](Cc1c[nH]c2ccccc12)NC(=O)[C@H](Cc1cnc[nH]1)NC(=O)[C@@H]1CCC(=O)N1` [buserelin, Buserelin] was tested, and the “site of cleavage (amide hydrolysis) by chymotrypsin” value (chymotrypsin) was “amide hydrolysis of the Trp-Ser bond; also recorded: amide hydrolysis of the Tyr-D-Ser(tBu) bond”.

In the case of “Glp-His-Trp-Ser-Tyr-HisBzl-Leu-Arg-Pro-NHEt [histrelin, Histrelin, synthetic LHRH analogue, Sigma L2761]”, the “metabolic stability with pancreatic elastase: percent parent peptide remaining with respect to time, compared in words” value (pancreatic elastase) was “slower than for leuprolide”.
